Some test systems named below: Escherichia coli ML-35p; Staphylococcus aureus; Escherichia coli; Klebsiella aerogenes; Enterobacter cloacae; Candida albicans; Pseudomonas aeruginosa; Aspergillus niger; Aspergillus fumigatus.
What all share (assay): ≥ marks a high value that may be exact or a test limit, other limits are often not marked, values filed in µg/mL are converted to µM
Assay [1] relates to Pseudomonas aeruginosa ATCC 27853.
In assay [2] the test system is Escherichia coli ATCC 25922.
Assay [3] concerns Xanthomonas axonopodis pv. glycines ISBF 327.
The subject of assay [4] is Staphylococcus aureus ATCC 29313.
For assay [5], the system named is Xanthomonas campestris pv. Vesicatoria 2133-2.
Assay [6] concerns Pseudomonas syringae pv. syringae EPS 94.
Assay [7] deals with Erwinia amylovora PMV 6076.
Assay [8] concerns Haemophilus influenzae ATCC 49766.
Assay [9] relates to Pseudomonas aeruginosa 447.
Assay [10] concerns Candida albicans ATCC 2002.
Assay [11] relates to Klebsiella pneumoniae ATCC 700603.
The test system of assay [12] is Enterococcus faecalis ATCC 29212.
Assay [13] relates to Staphylococcus aureus ATCC 25923.
The test system of assay [14] is Staphylococcus aureus ATCC 43300.
Assay [15] concerns Haemophilus influenzae ATCC 49247.
Assay [16] relates to Klebsiella pneumoniae ATCC 13883.
Assay [17] deals with Enterobacter cloacae ATCC 13047.
For assay [18], the system named is Pseudomonas aeruginosa PAO1.
The subject of assay [19] is Staphylococcus epidermidis ATCC 35984.
For assay [20], the system named is Staphylococcus aureus ATCC 33591.
For assay [21], the system named is Bacillus cereus PTCC 1435.
In assay [22] the test system is Leuconostoc mesenteroides PTCC 1445.
In assay [23] the test system is Klebsiella pneumoniae PTCC 4231.
The test system of assay [24] is Bacillus subtilis PTCC 4533.
Assay [25] deals with Pseudomonas aeruginosa PTCC 2834.
The test system of assay [26] is Escherichia coli PTCC 2433.

Molecules are shown by their SMILES. Values after ≈ are worked out from the molar mass of the structure shown.

Regarding `CC[C@H](C)[C@H](NC(=O)[C@H](C)NC(=O)[C@H](C)NC(=O)[C@H](C)NC(=O)[C@H](C)NC(=O)[C@H](C)NC(=O)[C@H](C)NC(=O)[C@H](C)N)C(=O)N[C@@H](CCCCN)C(=O)N[C@@H](CCSC)C(=O)N[C@@H](CC(C)C)C(=O)N[C@@H](CCSC)C(=O)N[C@@H](CC(=O)O)C(=O)N[C@@H](CC(C)C)C(=O)N[C@H](C(=O)N[C@@H](CC(N)=O)C(=O)N[C@@H](CCC(=O)O)C(=O)N[C@@H](CCCN=C(N)N)C(=O)N[C@H](C(=O)N[C@@H](CCSC)C(=O)N[C@@H](C)C(=O)N[C@@H](CC(C)C)C(=O)N[C@@H](CC(N)=O)C(=O)N[C@@H](CCCCN)C(=O)N[C@@H](CCCCN)C(=O)N[C@@H](C)C(=O)N[C@@H](CCCCN)C(=O)N[C@@H](CCCCN)C(N)=O)[C@@H](C)CC)C(C)C` [AAAAAAAIKMLMDLVNERIMALNKKAKK], the MIC in assay [1] is 20 µM (≈ 59.7 µg/mL); in assay [2], 10 µM (≈ 29.8 µg/mL); in assay [3], 1 µM (≈ 2.98 µg/mL); in [4] it was 20 µM (≈ 59.7 µg/mL).

Regarding `CC[C@H](C)[C@H](NC(=O)[C@H](CCCCN)NC(=O)[C@H](CCCCN)NC(=O)[C@H](Cc1ccccc1)NC(=O)[C@H](CC(C)C)NC(=O)[C@H](CCCCN)NC(=O)[C@H](CCCCN)NC(=O)[C@H](C)NC(=O)[C@@H]1CCCN1C(=O)CNC(=O)[C@H](C)NC(=O)[C@H](CC(C)C)NC(=O)[C@H](Cc1ccc(O)cc1)NC(=O)[C@H](CCCCN)NC(=O)[C@H](CC(C)C)NC(=O)[C@@H](NC(=O)[C@H](CCCCN)NC(=O)[C@H](CCCCN)NC(=O)[C@H](Cc1ccccc1)NC(=O)[C@H](CC(C)C)NC(=O)[C@H](CCCCN)NC(=O)[C@H](CCCCN)NC(=O)CN)[C@@H](C)CC)C(=O)N[C@@H](CC(C)C)C(=O)N[C@@H](CCCCN)C(=O)N[C@@H](Cc1ccc(O)cc1)C(=O)N[C@@H](CC(C)C)C(=O)O` [GKKLFKKILKYLAGPAKKLFKKILKYL], the MIC is 14.1 µM (≈ 45 µg/mL) in assay [5], 8.66 µM (≈ 27.5 µg/mL) in assay [6] and 14.1 µM (≈ 45 µg/mL) in assay [7].

Take `CC[C@H](C)[C@H](NC(=O)[C@@H](NC(=O)[C@H](CCCN=C(N)N)NC(=O)[C@@H]1CCCN1C(=O)[C@H](CCCCN)NC(=O)[C@H](CCCCN)NC(=O)[C@H](Cc1ccccc1)NC(=O)[C@H](Cc1ccccc1)NC(=O)[C@H](CCCCN)NC(=O)[C@H](CCCCN)NC(=O)[C@H](C)NC(=O)[C@H](CCCN=C(N)N)NC(=O)[C@H](CCCCN)NC(=O)[C@H](CCCCN)NC(=O)[C@@H](NC(=O)[C@H](CO)NC(=O)[C@H](CC(N)=O)NC(=O)[C@H](CCCCN)NC(=O)[C@H](CC(C)C)NC(=O)[C@H](CCCCN)NC(=O)[C@H](CCCCN)NC(=O)[C@H](Cc1ccccc1)NC(=O)[C@H](Cc1ccccc1)NC(=O)[C@@H](N)CCCCN)C(C)C)C(C)C)C(=O)NCC(=O)N[C@H](C(=O)N[C@@H](CO)C(=O)N[C@H](C(=O)N1CCC[C@H]1C(=O)N[C@@H](Cc1ccccc1)C(=O)O)[C@@H](C)CC)C(C)C` [KFFKKLKNSVKKRAKKFFKKPRVIGVSIPF]: the MIC worked out at 1.74 µM (≈ 6.25 µg/mL) in [1]; 0.869 µM (≈ 3.13 µg/mL) in the assay with Escherichia coli ML-35p; 1.74 µM (≈ 6.25 µg/mL) in [2]; 1.74 µM (≈ 6.25 µg/mL) against Staphylococcus aureus; 1.74 µM (≈ 6.25 µg/mL) with Escherichia coli; 0.869 µM (≈ 3.13 µg/mL) in [8]. The MIC in the assay with Klebsiella aerogenes is 1.74 µM (≈ 6.25 µg/mL); in assay [9] it was 1.74 µM (≈ 6.25 µg/mL); in assay [10] it was not below 55.6 µM; in assay [11], 0.869 µM (≈ 3.13 µg/mL); in the assay with Enterobacter cloacae it was 0.869 µM (≈ 3.13 µg/mL); in [12] it was 6.95 µM (≈ 25 µg/mL). Moreover, the MIC is 0.869 µM (≈ 3.13 µg/mL) in assay [13]; 1.74 µM (≈ 6.25 µg/mL) in assay [14]; more than 55.6 µM in the assay on Candida albicans; 0.869 µM (≈ 3.13 µg/mL) in assay [15]; 1.74 µM (≈ 6.25 µg/mL) in assay [16]; 3.48 µM (≈ 12.5 µg/mL) with Pseudomonas aeruginosa. The MIC in [17] turned out to be 6.95 µM (≈ 25 µg/mL); in assay [18], 1.74 µM (≈ 6.25 µg/mL).

In the case of `CC[C@H](C)[C@H](NC(=O)[C@H](CCCCN)NC(=O)[C@@H](NC(=O)[C@H](Cc1ccccc1)NC(=O)[C@H](C)NC(=O)[C@H](CCCCN)NC(=O)CNC(=O)[C@H](Cc1ccccc1)NC(=O)[C@H](CCCCN)NC(=O)[C@@H](N)CCCCN)C(C)C)C(=O)N[C@@H](CC(C)C)C(=O)N[C@@H](CCCCN)C(N)=O` [KKFGKAFVKILK], the MIC in [1] was 16.1 µM (≈ 22.6 µg/mL); in assay [13] it was 182 µM (≈ 256 µg/mL); in assay [19] it was not below 64.3 µM; in assay [20] it was not below 182 µM.

Turning to `CC[C@H](C)[C@H](NC(=O)[C@H](CO)NC(=O)[C@H](CCCCN)NC(=O)[C@H](CC(C)C)NC(=O)[C@H](CCCN=C(N)N)NC(=O)[C@@H](N)CC(C)C)C(=O)N[C@H](C(=O)N[C@@H](CO)C(=O)N[C@@H](Cc1ccc(O)cc1)C(=O)N[C@@H](C)C(=O)N[C@@H](CCCCN)C(=O)N[C@@H](CCCCN)C(=O)N[C@H](C(=O)N[C@@H](CC(C)C)C(=O)O)C(C)C)C(C)C` [LRLKSIVSYAKKVL], the MIC in [21] was 9.33 µM (≈ 15.1 µg/mL); with Aspergillus niger it was 15.2 µM (≈ 24.6 µg/mL); against Aspergillus fumigatus it was 11.9 µM (≈ 19.3 µg/mL); in assay [22], 12.2 µM (≈ 19.8 µg/mL); in assay [23], 16.5 µM (≈ 26.7 µg/mL); in assay [24], 10.9 µM (≈ 17.6 µg/mL). The MIC worked out at 15 µM (≈ 24.2 µg/mL) in assay [25], 12.6 µM (≈ 20.4 µg/mL) against Candida albicans and 17.5 µM (≈ 28.3 µg/mL) in assay [26].

For the origin of these results see DBAASP.
